{"source": "ChEMBL document CHEMBL1201862", "about": "“PubChem BioAssay data set” (2004)", "key": {"cells [1]": {"assay": "cells", "type": "functional, cell-based"}, "cells [2]": {"assay": "cells", "type": "functional, cell-based", "remark": "listed apart in the source"}, "Nonstructural protein 1": {"molecular_target": "Nonstructural protein 1 (Influenza A virus, UniProt Q194T2)", "sequence (Q194T2 whole entry)": "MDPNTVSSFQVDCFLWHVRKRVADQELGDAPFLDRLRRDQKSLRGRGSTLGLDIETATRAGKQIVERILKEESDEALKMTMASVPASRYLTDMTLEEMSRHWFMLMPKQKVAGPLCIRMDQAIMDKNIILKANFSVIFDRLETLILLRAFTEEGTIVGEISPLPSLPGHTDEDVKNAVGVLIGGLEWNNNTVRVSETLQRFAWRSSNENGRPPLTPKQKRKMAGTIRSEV", "type": "functional, Influenza A virus (A/California/07/2009(H1N1))"}, "[3]": {"molecular_target": "T1, Rac GTPase-activating protein 1 (Homo sapiens, UniProt Q9H0H5)", "T1 sequence (Q9H0H5 whole entry)": "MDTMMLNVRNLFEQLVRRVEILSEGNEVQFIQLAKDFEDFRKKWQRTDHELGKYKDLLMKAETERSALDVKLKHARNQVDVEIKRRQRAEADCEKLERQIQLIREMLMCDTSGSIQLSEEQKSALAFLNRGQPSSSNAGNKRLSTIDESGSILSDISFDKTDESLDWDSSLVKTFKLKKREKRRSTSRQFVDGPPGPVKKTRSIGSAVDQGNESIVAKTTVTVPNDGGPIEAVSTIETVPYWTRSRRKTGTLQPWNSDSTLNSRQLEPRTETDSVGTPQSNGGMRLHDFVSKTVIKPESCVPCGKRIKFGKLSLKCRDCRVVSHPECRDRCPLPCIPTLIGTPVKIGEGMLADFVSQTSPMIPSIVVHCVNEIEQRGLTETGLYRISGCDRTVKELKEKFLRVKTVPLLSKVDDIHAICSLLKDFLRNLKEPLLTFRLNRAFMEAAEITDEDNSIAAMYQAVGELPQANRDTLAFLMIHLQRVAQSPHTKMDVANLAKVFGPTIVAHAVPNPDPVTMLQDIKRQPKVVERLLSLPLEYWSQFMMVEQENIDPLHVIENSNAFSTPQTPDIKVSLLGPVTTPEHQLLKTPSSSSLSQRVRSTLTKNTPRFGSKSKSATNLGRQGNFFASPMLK", "assay": "MgcRacGAP GTPase-activating activity inhibitors, confirmation, biochemical, ADP Hunter fluorescence, primary and confirmatory (AID 624330)", "type": "functional"}, "HEK293": {"tested_on": "HEK293", "assay": "inhibitors of LMP1-driven NF-kB reporter, dose response, cell-based, HEK293, luciferase, cherry-pick (AID 588343)", "type": "functional", "conditions": "Homo sapiens"}, "[4]": {"assay": "growth suppression of beta-catenin-knockout colon cells, dose response, cell-based, HCT116, human colon tumor (AID 1045);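 note: HCT116 colon tumor cells with beta catenin knocked out; cells exposed to compound for 60 hours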", "type": "functional"}, "[5]": {"assay": "Luminescence Cell-Based Dose Retest to Confirm Inhibitors of Cancer Stem Cells. [Related pubchem assays (depositor defined):AID2717, AID2721]", "type": "functional", "conditions": "Homo sapiens"}, "[6]": {"assay": "microbe, parasite or virus in culture", "type": "functional", "conditions": "Mycobacterium tuberculosis"}, "[7]": {"assay": "growth suppression of PTEN-null colon cells, dose response, cell-based, HCT116 PTEN knockout (AID 1047);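 note: HCT116 colon tumor cells with PTEN knocked out; cells exposed to compound for 60 hours before readout; potency for loss of cell viability measured by luminescence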", "type": "functional"}, "Leucine aminopeptidase": {"molecular_target": "T2, Leucine aminopeptidase (Plasmodium falciparum 3D7, UniProt Q8IL11)", "T2 sequence (Q8IL11 whole entry)": "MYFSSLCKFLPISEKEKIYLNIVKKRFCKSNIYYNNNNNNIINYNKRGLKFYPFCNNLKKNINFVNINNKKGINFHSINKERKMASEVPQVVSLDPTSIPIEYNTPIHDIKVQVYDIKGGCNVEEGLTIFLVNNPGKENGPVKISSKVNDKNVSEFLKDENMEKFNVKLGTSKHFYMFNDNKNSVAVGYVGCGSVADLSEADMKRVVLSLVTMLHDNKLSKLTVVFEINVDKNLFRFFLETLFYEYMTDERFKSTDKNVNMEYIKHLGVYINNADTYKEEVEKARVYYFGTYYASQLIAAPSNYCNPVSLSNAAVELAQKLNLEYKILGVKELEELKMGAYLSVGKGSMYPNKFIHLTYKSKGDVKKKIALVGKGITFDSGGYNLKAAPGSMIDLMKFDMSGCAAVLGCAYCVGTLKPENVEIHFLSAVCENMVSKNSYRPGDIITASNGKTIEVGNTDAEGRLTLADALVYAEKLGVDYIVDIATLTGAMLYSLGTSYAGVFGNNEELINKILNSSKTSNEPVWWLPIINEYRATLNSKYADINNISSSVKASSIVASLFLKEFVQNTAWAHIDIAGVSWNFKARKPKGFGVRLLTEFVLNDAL", "assay": "P. falciparum M17LAP inhibitors, primary screen, biochemical, fluorogenic H-Leu-NHMec substrate, 1536-well (AID 1619)", "type": "functional"}, "[8]": {"molecular_target": "T3, Heat shock factor protein 1 (Mus musculus, UniProt P38532)", "T3 sequence (P38532 whole entry)": "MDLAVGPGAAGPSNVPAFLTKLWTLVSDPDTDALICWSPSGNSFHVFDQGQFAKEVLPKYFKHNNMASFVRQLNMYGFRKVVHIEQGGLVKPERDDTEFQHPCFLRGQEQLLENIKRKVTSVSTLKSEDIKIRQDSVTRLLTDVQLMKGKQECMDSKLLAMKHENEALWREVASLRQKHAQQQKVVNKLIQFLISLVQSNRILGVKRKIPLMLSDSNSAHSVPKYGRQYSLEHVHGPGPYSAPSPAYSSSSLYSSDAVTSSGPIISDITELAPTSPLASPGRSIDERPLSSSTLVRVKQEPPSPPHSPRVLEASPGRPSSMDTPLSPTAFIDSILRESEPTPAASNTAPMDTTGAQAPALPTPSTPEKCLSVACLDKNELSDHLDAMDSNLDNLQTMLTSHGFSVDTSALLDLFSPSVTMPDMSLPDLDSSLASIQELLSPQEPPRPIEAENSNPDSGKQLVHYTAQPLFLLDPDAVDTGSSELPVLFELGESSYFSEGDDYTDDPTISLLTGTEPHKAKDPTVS", "assay": "inhibition of MG132-induced HSE-luciferase signal, confirmation, cell-based, NIH3T3, luminescence, dose retest (AID 2382);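 note: NIH3T3 fibroblasts with HSF1-driven luciferase reporter stressed by proteasome inhibitor MG132; luminescence from HSF1-driven luciferase expression after 8 hours of MG132 stress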", "type": "functional"}, "Vero": {"tested_on": "Vero", "assay": "cells", "type": "functional", "conditions": "Chlorocebus sabaeus"}, "Cytochrome P450 2C9": {"molecular_target": "Cytochrome P450 2C9 (Homo sapiens, UniProt P11712)", "sequence (P11712 whole entry)": "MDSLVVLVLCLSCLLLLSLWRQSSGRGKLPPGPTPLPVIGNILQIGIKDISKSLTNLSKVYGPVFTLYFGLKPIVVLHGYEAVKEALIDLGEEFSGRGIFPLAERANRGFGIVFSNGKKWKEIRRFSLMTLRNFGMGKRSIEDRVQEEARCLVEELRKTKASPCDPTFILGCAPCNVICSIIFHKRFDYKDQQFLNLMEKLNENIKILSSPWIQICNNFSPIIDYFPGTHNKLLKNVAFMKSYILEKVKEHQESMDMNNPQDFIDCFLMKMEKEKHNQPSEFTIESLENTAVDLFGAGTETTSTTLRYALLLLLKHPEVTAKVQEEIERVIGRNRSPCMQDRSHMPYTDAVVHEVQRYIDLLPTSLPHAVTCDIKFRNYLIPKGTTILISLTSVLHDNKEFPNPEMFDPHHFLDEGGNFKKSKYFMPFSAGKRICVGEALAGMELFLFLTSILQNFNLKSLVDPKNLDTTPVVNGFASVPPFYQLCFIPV"}, "Aminopeptidase N": {"molecular_target": "T4, Aminopeptidase N (Plasmodium falciparum FcB1/Columbia, UniProt O96935)", "T4 sequence (O96935 whole entry)": "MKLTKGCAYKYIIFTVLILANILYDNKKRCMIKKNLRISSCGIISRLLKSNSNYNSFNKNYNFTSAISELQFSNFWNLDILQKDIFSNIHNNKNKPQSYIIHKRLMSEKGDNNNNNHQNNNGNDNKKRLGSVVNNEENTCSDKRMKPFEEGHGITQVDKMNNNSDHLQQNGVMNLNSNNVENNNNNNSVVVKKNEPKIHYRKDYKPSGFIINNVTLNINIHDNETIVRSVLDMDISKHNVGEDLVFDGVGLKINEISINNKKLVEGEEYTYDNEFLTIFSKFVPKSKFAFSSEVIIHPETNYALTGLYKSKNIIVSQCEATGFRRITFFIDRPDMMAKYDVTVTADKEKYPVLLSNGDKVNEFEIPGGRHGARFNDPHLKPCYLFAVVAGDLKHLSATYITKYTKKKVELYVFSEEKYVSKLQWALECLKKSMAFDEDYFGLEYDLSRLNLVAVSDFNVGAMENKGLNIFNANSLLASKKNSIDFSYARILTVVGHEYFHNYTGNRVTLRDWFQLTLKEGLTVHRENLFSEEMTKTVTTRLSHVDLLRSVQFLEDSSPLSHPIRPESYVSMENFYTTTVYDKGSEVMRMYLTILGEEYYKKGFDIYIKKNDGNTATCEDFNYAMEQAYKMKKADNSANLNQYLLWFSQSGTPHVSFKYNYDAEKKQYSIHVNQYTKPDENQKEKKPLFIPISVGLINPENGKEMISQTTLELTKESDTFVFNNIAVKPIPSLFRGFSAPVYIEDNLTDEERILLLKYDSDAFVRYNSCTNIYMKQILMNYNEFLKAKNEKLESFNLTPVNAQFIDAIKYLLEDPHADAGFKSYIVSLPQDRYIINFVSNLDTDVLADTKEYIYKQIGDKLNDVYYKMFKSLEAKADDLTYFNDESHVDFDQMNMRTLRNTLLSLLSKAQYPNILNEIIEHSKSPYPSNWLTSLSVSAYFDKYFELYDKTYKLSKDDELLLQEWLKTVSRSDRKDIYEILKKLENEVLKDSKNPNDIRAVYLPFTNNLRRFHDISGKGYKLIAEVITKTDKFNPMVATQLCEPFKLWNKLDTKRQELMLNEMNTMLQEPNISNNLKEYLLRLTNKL", "assay": "P. falciparum M1AAP inhibitors, biochemical, fluorogenic H-Leu-NHMec substrate, 1536-well (AID 1445)", "set-up": "species or system Plasmodium falciparum 3D7, 3D7"}, "Cytochrome P450 2D6": {"molecular_target": "Cytochrome P450 2D6 (Homo sapiens, UniProt P10635)", "sequence (P10635 whole entry)": "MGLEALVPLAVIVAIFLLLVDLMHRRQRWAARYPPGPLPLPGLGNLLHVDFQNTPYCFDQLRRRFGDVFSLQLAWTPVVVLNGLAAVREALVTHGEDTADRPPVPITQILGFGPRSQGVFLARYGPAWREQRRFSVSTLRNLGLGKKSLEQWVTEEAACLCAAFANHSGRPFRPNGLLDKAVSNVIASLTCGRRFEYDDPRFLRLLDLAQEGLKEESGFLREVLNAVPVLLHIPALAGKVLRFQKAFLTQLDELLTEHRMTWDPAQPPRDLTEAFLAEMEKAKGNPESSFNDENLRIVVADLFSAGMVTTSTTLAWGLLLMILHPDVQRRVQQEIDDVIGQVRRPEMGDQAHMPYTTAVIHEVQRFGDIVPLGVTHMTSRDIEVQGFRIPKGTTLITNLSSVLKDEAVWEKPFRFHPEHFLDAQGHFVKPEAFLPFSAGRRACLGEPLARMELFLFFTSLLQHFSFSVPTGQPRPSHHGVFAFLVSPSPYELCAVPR"}, "[9]": {"assay": "inhibitors of clade B AD8 Env fusion, dose response, cell-based, cherry-pick (AID 652062);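 note: potency is for inhibitors of fusion seen as a drop in luminescence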", "type": "functional"}, "[10]": {"assay": "HEp-2 cell cytotoxicity, dose response, cytotoxicity control for RSV inhibitor project, HTS (AID 2410)", "type": "functional", "conditions": "human respiratory syncytial virus"}, "[11]": {"assay": "C. albicans growth with fluconazole, confirmation, fluorescence, retest (AID 2467)", "type": "functional, cell-based"}, "[12]": {"molecular_target": "Heat shock protein HSP 90-alpha (Homo sapiens, UniProt P07900)", "type": "functional, organism-based"}, "[13]": {"assay": "NIH-3T3 fibroblast cytotoxicity, dose response, cytotoxicity control, cell-based, fluorescence, Alamar Blue, secondary assay (AID 2327);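 note: NIH-3T3 mouse fibroblasts cultured with fluconazole at 8 µg/mL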", "type": "functional"}}, "note": "The source made the active and inactive calls.", "data": [{"compound": "COc1ccc2ccccc2c1/C=N/Nc1cccc(C(=O)O)c1", "values": [{"measurement": "EC50", "setting": "cells [1]", "result": "16.8 µM (active)"}, {"measurement": "EC50", "setting": "cells [2]", "result": "> 350 µM (not active)"}]}, {"compound": "O=C(CNCc1ccccn1)N1CCc2ccccc2C1", "values": [{"measurement": "IC50", "setting": "Nonstructural protein 1", "result": "3.54 µM (active)"}, {"measurement": "IC50", "setting": "[3]", "result": "177 µM (active)"}]}, {"compound": "N#Cc1ncc(N=Cc2ccc(N(CCCl)CCCl)cc2)s1", "values": [{"measurement": "AC50", "setting": "HEK293", "result": "1.22 µM (active)"}]}, {"compound": "C=CCn1cccc(/C=C/C(=O)c2ccc(C(C)(C)C)cc2)c1=S", "values": [{"measurement": "EC50", "setting": "[4]", "result": "2.56 µM (active)"}, {"measurement": "AC50", "setting": "[5]", "result": "5.64 µM (active)"}, {"measurement": "CC50", "setting": "[6]", "result": "10.3 µM (active)"}, {"measurement": "EC50", "setting": "[7]", "result": "4.04 µM (active)"}]}, {"compound": "O=C(O)c1ccc(N/N=C/c2ccc(C(F)(F)F)cc2)cc1", "values": [{"measurement": "IC50", "setting": "Leucine aminopeptidase", "result": "46.3 µM (active)"}]}, {"compound": "CC(c1ccccc1)N1CCN(C(=O)CCl)CC1", "note": "(stereo not drawn)", "values": [{"measurement": "EC50", "setting": "[8]", "result": "43.8 µM (active)"}, {"measurement": "CC50", "setting": "Vero", "result": "9.03 µM (active)"}, {"measurement": "CC50", "setting": "[6]", "result": "17.9 µM (active)"}]}, {"compound": "Cc1ccc(C(=O)N/N=C/c2sc(=O)n(Cc3cccc(C(=O)O)c3)c2Cl)cc1", "values": [{"measurement": "AC50", "setting": "Cytochrome P450 2C9", "result": "12.6 µM (inconclusive)"}, {"measurement": "IC50", "setting": "Leucine aminopeptidase", "result": "17.8 µM (active)"}]}, {"compound": "CNS(=O)(=O)c1cccc(C(=O)OCC(=O)c2ccc3c(c2)OCCO3)c1", "values": [{"measurement": "AC50", "setting": "HEK293", "result": "8.57 µM (active)"}]}, {"compound": "CCCCOc1ccc(CC(=O)NO)cc1", "note": "[BUFEXAMAC]", "values": [{"measurement": "EC50", "setting": "[8]", "result": "> 195 µM (not active)"}, {"measurement": "IC50", "setting": "Aminopeptidase N", "result": "81.2 µM (active)"}, {"measurement": "AC50", "setting": "Cytochrome P450 2D6", "result": "10 µM (inconclusive)"}, {"measurement": "IC50", "setting": "Leucine aminopeptidase", "result": "< 1 µM (active)"}]}, {"compound": "CSc1ccc(N/N=C(/C#N)S(=O)(=O)C(C)(C)C)cc1", "values": [{"measurement": "IC50", "setting": "Leucine aminopeptidase", "result": "30.6 µM (active)"}]}, {"compound": "Cc1onc(-c2ccccc2)c1C(=O)Nc1ccc(Br)cc1Cl", "values": [{"measurement": "AC50", "setting": "[9]", "result": "3.43 µM (active)"}]}, {"compound": "Cc1ccc(CNC(=O)NC2CCCCC2)cc1", "values": [{"measurement": "EC50", "setting": "cells [1]", "result": "55 µM (active)"}, {"measurement": "EC50", "setting": "cells [2]", "result": "> 350 µM (not active)"}]}, {"compound": "CCOc1ccc(-c2c(C(=O)N/N=C/c3cccnc3)nnn2-c2nonc2N)cc1", "values": [{"measurement": "EC50", "setting": "cells [1]", "result": "> 350 µM (not active)"}, {"measurement": "EC50", "setting": "cells [2]", "result": "> 350 µM (not active)"}]}, {"compound": "O=C(N/N=C/c1ccccn1)c1cc(-c2ccc(Cl)cc2)nc2ccccc12", "values": [{"measurement": "CC50", "setting": "Vero", "result": "14.2 µM (active)"}, {"measurement": "CC50", "setting": "[10]", "result": "11.8 µM (active)"}, {"measurement": "EC50", "setting": "[11]", "result": "1.06 µM (active)"}, {"measurement": "AC50", "setting": "[12]", "result": "7.9 µM (active)"}, {"measurement": "EC50", "setting": "[13]", "result": "20.6 µM (active)"}]}, {"compound": "CCC(=O)NC(=S)Nc1ccc(NC(=O)COc2ccc(Cl)cc2Cl)cc1", "values": [{"measurement": "CC50", "setting": "[6]", "result": "39.6 µM (active)"}]}, {"compound": "O=C(CSc1nnc(NC(=O)c2c(F)cccc2F)s1)Nc1ccc(F)cc1", "values": [{"measurement": "IC50", "setting": "Leucine aminopeptidase", "result": "32.3 µM (active)"}]}]}
